Reference: US20110039763A1, “TARGETED ANTIMICROBIAL MOIETIES” (C3 JIAN, INC., priority 2009, published 2011)
“Also recorded” adds a separate entry of the source.

What was measured:
[1] = test system: microorganisms; assay: Morphology, biofilm and growth disrupting peptides (Table 5); assay type: cell-based; parameters: key: A: Peptide aggregates; B: Less hyphal formation; Clumps; Diffuse clumps and small polyps; F: Diffuse growth; H: Thin; I: Growth inhibition; Microcolony formation; Rippled; Small polyps; Thick; W: Halo formation on top, microlonies on bottom
Description: In certain embodiments peptides that induce alterations in phenotype or other biological activities can also be used as antimicrobial effector moieties.

[2] = test system: microorganisms; assay: Targeting peptide binding to target microorganisms (Tables 3, 10, 12); conditions: microorganism(s) the targeting peptide binds, preferably 1x PBS
[3] = test system: microorganisms; assay: Peptide activities: targeting/binding, antimicrobial, growth or phenotype altering (Tables 7, 8); assay type: cell-based; conditions: peptides having multiple activities
[4] = binding in aqueous buffers that varied with peptide solubility
[5] = binding in aqueous buffers varied with peptide solubility

Substance | Organism, effect: S. epidermidis ([1]; S. epidermidis) | Activities [3] | Target(s) [2, 5] | other results
PF-036: peptide having multiple activities (ILNRLSRIVSNEVTSLIYSLK; Peptide with targeting and/or antimicrobial activity) | S. epidermidis (S) | G B | – | Organism, effect: C. jeikeium ([1]; C. jeikeium): C. jeikeium (A); Organism, effect: M. luteus ([1]; M. luteus): M. luteus (A); Organism, effect: MRSA ([1]; MRSA): MRSA (R); Target(s) [2, 4]: S. epidermidis and M. luteus and P. mirabilis and E. coli and C. albicans and MRSA and S. pneumoniae and C. jejuni
PF-C055: peptide having multiple activities (YNLSIYIYFLHTITIAGLITLPFII; Peptide with targeting and/or antimicrobial activity) | – | G B | A. naeslundii; also recorded: F. nucleatum; also recorded: P. gingivalis; also recorded: S. mutans | Organism, effect ([1]; F. nucleatum): F. nucleatum (T); Organism, effect ([1]; S. mutans): S. mutans (I)
PF-009: peptide having multiple activities (SKKYNHILNQENR; Peptide with targeting and/or antimicrobial activity) | S. epidermidis (S) | G B | – | Target(s) [2, 4]: M. luteus; also recorded: P. mirabilis; also recorded: C. albicans
PF-061: peptide having multiple activities (GYNSYKAVQDVKTHSEEQRVTAKK; Peptide with targeting and/or antimicrobial activity) | S. epidermidis (R) | G B | – | Organism, effect: B. subtilis ([1]; B. subtilis): B. subtilis (R); Organism, effect: C. jejuni ([1]; C. jejuni): C. jejuni (R); Organism, effect: S. pneumoniae ([1]; S. pneumoniae): S. pneumoniae (R); Target(s) [2, 4]: S. epidermidis; also recorded: S. pneumoniae
PF-069: peptide having multiple activities (chain 1 FDPVPLKKDKSASKHSHKHNH; chain 2 FDPVPLKKDKSASKHSHKHNH; Peptide with targeting and/or antimicrobial activity) | – | G B | – | Organism, effect: B. subtilis ([1]; B. subtilis): B. subtilis (D); Organism, effect: C. jejuni ([1]; C. jejuni): C. jejuni (R); Target(s) [2, 4]: E. faecalis; also recorded: C. jejuni
PF-573: peptide having multiple activities (EKKLIVKLIDSIGKSHEEIVGAG; Peptide with targeting and/or antimicrobial activity) | – | G B | S. epidermidis; also recorded: S. pneumoniae | Organism, effect ([1]; S. pneumoniae): S. pneumoniae (C)
PF-627: peptide having multiple activities (chain 1 INDLLSYFTLHEK; chain 2 INDLLSYFTLHEK; Peptide with targeting and/or antimicrobial activity) | – | G B | S. epidermidis and P. aeruginosa and MRSA and S. pneumoniae and E. faecalis and C. jeikeium | Organism, effect ([1]; C. albicans): C. albicans (B); Organism, effect ([1]; E. faecalis): E. faecalis (H); Organism, effect ([1]; MRSA): MRSA (R); Organism, effect ([1]; S. epidermidis): S. epidermidis (H); Organism, effect ([1]; S. pneumoniae): S. pneumoniae (I)
GNVHPESDFHNLIQFIKTFLYFTIFFKYFL [PF-C290] | – | G B | A. naeslundii; also recorded: F. nucleatum; also recorded: P. gingivalis; also recorded: S. mutans; also recorded: T. denticola | Organism, effect ([1]; S. mutans): S. mutans (F)
PF-738: peptide having multiple activities (KSGATSAASGAKSGASS; Peptide with targeting and/or antimicrobial activity) | – | G B | S. epidermidis; also recorded: C. albicans; also recorded: C. jeikeium | Organism, effect ([1]; MRSA): MRSA (M)
PF-557: peptide having multiple activities (AANKAREQAAAEAKRKAEEQAR; Peptide with targeting and/or antimicrobial activity) | – | G B | S. pneumoniae | Organism, effect ([1]; B. subtilis): B. subtilis (D)
PF-382: peptide having multiple activities (chain 1 KYKCSWCKRVYTLRKDHKTAR; chain 2 KYKCSWCKRVYTLRKDHKTAR; Peptide with targeting and/or antimicrobial activity) | – | G B | S. epidermidis; also recorded: B. subtilis; also recorded: B. fragilis; also recorded: E. coli; also recorded: P. aeruginosa; also recorded: E. faecalis; also recorded: C. jeikeium; also recorded: C. jejuni | Organism, effect: MRSA ([1]; MRSA): MRSA (M)
PF-540: peptide having multiple activities (KSILILIKVIFIGQTTIIL; Peptide with targeting and/or antimicrobial activity) | – | G B | C. albicans | Organism, effect ([1]; E. coli): E. coli (R); Organism, effect ([1]; MRSA): MRSA (H); Organism, effect ([1]; S. epidermidis): S. epidermidis (H); Organism, effect ([1]; S. pneumoniae): S. pneumoniae (R)
PF-414: peptide having multiple activities (chain 1 LLNKKLE; chain 2 LLNKKLE; Peptide with targeting and/or antimicrobial activity) | – | G B | E. coli; also recorded: C. albicans; also recorded: C. jeikeium | Organism, effect: S. pneumoniae ([1]; S. pneumoniae): S. pneumoniae (H)
PF-233: peptide having multiple activities (DANAMARTTIAIVYILALIALTISYSL; Peptide with targeting and/or antimicrobial activity) | S. epidermidis (C) | G B | S. epidermidis; also recorded: M. luteus; also recorded: P. aeruginosa; also recorded: A. baumannii | –
PF-C069: peptide having multiple activities (NALMLREMQLAKNIKVEVTDVLSNKKYC; Peptide with targeting and/or antimicrobial activity) | – | G B | A. naeslundii; also recorded: F. nucleatum; also recorded: P. gingivalis; also recorded: S. mutans; also recorded: T. denticola | Organism, effect ([1]; F. nucleatum): F. nucleatum (T)
PF-424: peptide having multiple activities (chain 1 IAAFVTSRAFSDTVSPI; chain 2 IAAFVTSRAFSDTVSPI; Peptide with targeting and/or antimicrobial activity) | – | G B | S. epidermidis and C. albicans and MRSA | Organism, effect ([1]; S. pneumoniae): S. pneumoniae (H)
PF-567: peptide having multiple activities (QQRVKAVDASLSQVSTQVSGAVASA; Peptide with targeting and/or antimicrobial activity) | – | G B | S. epidermidis and P. aeruginosa and C. albicans and MRSA and S. pneumoniae and C. jeikeium | Organism, effect ([1]; C. jeikeium): C. jeikeium (C); Organism, effect ([1]; C. jejuni): C. jejuni (D); Organism, effect ([1]; M. luteus): M. luteus (C); Organism, effect ([1]; MRSA): MRSA (D); Organism, effect ([1]; S. pneumoniae): S. pneumoniae (D)
PF-593: peptide having multiple activities (chain 1 MEISTLKKEKLHVKDELSQYLANYKK; chain 2 MEISTLKKEKLHVKDELSQYLANYKK; Peptide with targeting and/or antimicrobial activity) | – | G B | C. jeikeium | Organism, effect ([1]; E. faecalis): E. faecalis (A)
PF-642: peptide having multiple activities (chain 1 FTTPMIGIPAGLLGGSYYLKRREEKGK; chain 2 FTTPMIGIPAGLLGGSYYLKRREEKGK; Peptide with targeting and/or antimicrobial activity) | – | G B | M. luteus and MRSA and C. jeikeium | Organism, effect ([1]; MRSA): MRSA (M)
PF-462: peptide having multiple activities (KNKTDTL; Peptide with targeting and/or antimicrobial activity) | – | G B | E. faecalis; also recorded: C. jeikeium | Organism, effect ([1]; S. pneumoniae): S. pneumoniae (H)
PF-065: peptide having multiple activities (LEKNTRDNYFIHAIDRIYINTSKGLFPESELVAWG; Peptide with targeting and/or antimicrobial activity) | S. epidermidis (D) | G B | – | Organism, effect: C. jeikeium ([1]; C. jeikeium): C. jeikeium (A); Organism, effect: MRSA ([1]; MRSA): MRSA (R); Target(s) [2, 4]: M. luteus and E. coli and P. aeruginosa and C. albicans and MRSA and S. pneumoniae and C. jeikeium and C. jejuni
PF-396: peptide having multiple activities (chain 1 LIYTILASLGVLTVLQAILGREPKAVKA; chain 2 LIYTILASLGVLTVLQAILGREPKAVKA; Peptide with targeting and/or antimicrobial activity) | S. epidermidis (S) | G B | S. epidermidis; also recorded: E. coli; also recorded: P. aeruginosa; also recorded: C. albicans; also recorded: E. faecalis; also recorded: C. jeikeium | Organism, effect: E. coli ([1]; E. coli): E. coli (C); Organism, effect: E. faecalis ([1]; E. faecalis): E. faecalis (C); Organism, effect: MRSA ([1]; MRSA): MRSA (C)
PF-360: peptide having multiple activities (chain 1 MEQKVKVIFVPRSKPDNQLKTFVSAVLFKA; chain 2 MEQKVKVIFVPRSKPDNQLKTFVSAVLFKA; Peptide with targeting and/or antimicrobial activity) | S. epidermidis (S) | G B | S. epidermidis; also recorded: B. subtilis; also recorded: E. coli; also recorded: P. aeruginosa; also recorded: C. albicans; also recorded: E. faecalis; also recorded: C. jeikeium; also recorded: C. jejuni | Organism, effect: E. coli ([1]; E. coli): E. coli (C); Organism, effect: MRSA ([1]; MRSA): MRSA (H)
